In patent US11161846B2, “Substituted pyrazolo[4,3-b]pyridines and their use as GluN2B receptor modulators” (JANSSEN PHARMACEUTICA NV, priority 2019, dated 2021) one finds IC50 data, which are given here for 33 compounds.

As a reminder, the IC50 is the point on the concentration scale where inhibition reaches its midpoint.

The target of the assay is T1, human GluN1/GluN2B NMDA receptors (Homo sapiens, UniProt Q05586+Q13224).
T1 construct: expressed in transfected cells
Nature of the assay: Calcium flux (FLIPR) assay on cloned human NR1/GluN2B ion channels expressed in mammalian cells, standard assay. Conditions: glutamate ~EC40 and 10 μM glycine, stable cell line with Tet-On induced expression. The class given is cell-based. As to the method:
Effects of Test Articles on Cloned Human NR1/GluN2B Ion Channels Expressed in Mammalian Cells
NMDA receptors are ion channels that are highly permeable to Ca^2+ ions, rendering it possible to monitor NMDA receptor function using cell-based calcium flux assay. In this assay, co-agonists glutamate and glycine are added to cells heterologously expressing human GluN1/GluN2B NMDA receptors to initiate cellular Ca^2+ influx. The time course of the changes in intracellular calcium is measured using a fluorescent dye and a FLIPR (Fluorometric Imaging Plate Reader) device.
Twenty four hours before measurements, the expression of the NMDA receptors in the stable cell line is induced with Tet-On inducible system in the presence of a non-selective NMDA receptor blocker. On the day of the experiment, cell culture media is carefully washed and the cells are loaded with Calcium 5 Dye Kit (Molecular Devices) in dye loading buffer containing 137 mM NaCl, 4 mM KCl, 2 mM CaCl2, 0.5 mM MgCl2 (standard assay) or 1.5 mM MgCl2 (HTS assay), 10 mM HEPES and 5 mM D-glucose; pH 7.4. After 1 h incubation at the room temperature, the dye is washed away with the assay buffer (137 mM NaCl (standard assay) or 150 mM (HTS assay), 4 mM KCl (standard assay) or 3 mM (HTS assay), 2 mM CaC2, 0.01 mM EDTA, 10 mM HEPES and 5 mM D-glucose; pH 7.4) In the FLIPR TETRA reader, various concentrations of the test compounds are added to the cells for 5 min while fluorescence is monitored to detect potential agonist activity. Next, co-agonists, glutamate and glycine are added for another 5 minutes. The concentration of glutamate corresponding to ˜EC40 (standard assay) or EC40 (HTS assay) is used to maximize the assay's signal window and ability to detect NMDA receptor antagonists and negative allosteric modulators. A saturating concentration (10 μM) of glycine is also present in the assay. A non-selective NMDA receptor antagonist, (+)MK-801 is used as a positive control for antagonist activity. The fluorescent signal in the presence of test compounds is quantified and normalized to the signal defined by the appropriate control wells.
A general note: A change in cytosolic calcium serves as a functional read-out for many receptors and channels.

T1 sequence (Q13224 27-1484, other chains not shown): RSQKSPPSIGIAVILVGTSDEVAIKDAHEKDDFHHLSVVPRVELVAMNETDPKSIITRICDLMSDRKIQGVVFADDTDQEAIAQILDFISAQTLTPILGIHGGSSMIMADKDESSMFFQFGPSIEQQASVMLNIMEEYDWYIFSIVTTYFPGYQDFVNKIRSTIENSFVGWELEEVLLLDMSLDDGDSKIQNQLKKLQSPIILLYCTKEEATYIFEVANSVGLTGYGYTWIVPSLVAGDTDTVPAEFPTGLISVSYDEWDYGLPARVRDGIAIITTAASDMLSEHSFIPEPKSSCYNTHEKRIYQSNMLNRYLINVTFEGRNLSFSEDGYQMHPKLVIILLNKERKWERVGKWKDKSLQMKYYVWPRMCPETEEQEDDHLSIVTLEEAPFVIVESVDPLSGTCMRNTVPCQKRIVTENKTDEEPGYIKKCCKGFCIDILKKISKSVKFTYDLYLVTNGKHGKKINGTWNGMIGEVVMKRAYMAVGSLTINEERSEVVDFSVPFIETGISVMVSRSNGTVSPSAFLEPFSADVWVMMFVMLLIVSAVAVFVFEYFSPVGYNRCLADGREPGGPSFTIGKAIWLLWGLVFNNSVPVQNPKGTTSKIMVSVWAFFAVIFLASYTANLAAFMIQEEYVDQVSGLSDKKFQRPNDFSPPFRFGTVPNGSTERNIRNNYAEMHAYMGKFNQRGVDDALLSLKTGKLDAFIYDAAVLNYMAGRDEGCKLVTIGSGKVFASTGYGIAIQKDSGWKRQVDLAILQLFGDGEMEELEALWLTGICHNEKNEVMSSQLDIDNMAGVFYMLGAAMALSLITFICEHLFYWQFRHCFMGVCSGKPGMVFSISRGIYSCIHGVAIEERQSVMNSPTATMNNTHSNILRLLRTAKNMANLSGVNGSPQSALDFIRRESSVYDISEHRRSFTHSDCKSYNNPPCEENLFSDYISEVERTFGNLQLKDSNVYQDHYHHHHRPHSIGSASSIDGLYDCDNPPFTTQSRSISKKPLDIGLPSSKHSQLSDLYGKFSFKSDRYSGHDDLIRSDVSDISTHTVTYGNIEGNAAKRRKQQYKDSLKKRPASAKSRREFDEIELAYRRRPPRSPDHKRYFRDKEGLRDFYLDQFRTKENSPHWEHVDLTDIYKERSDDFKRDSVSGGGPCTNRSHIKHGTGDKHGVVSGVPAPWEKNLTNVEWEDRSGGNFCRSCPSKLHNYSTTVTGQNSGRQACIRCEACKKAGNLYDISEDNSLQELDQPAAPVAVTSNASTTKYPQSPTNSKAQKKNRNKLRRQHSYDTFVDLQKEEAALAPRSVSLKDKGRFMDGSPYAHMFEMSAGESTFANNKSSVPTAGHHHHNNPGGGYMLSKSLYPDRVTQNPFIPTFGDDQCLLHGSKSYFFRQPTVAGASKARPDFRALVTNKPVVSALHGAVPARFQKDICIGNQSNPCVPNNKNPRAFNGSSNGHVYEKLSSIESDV

Regarding `O=C1NC[C@H](Cn2ncc3ncc(-c4ccc(F)c(C(F)F)c4)cc32)O1` [Example 22, (R)-5-[[6-[3-(Difluoromethyl)-4-fluoro-phenyl]pyrazolo[4,3-b]pyridin-1-yl]methyl]oxazolidin-2-one], the IC50 stood at 187 nM.
As to `CC(C)C(O)Cn1ncc2ncc(-c3cccc(C(F)(F)F)c3)cc21` (racemic) [Example 3, (RS)-3-Methyl-1-[6-[3-(trifluoromethyl)phenyl]pyrazolo[4,3-b]pyridin-1-yl]butan-2-ol], the IC50 stood at 567 nM.
Take `O=C(Cn1ncc2ncc(-c3cccc(C(F)(F)F)c3F)cc21)C1CC1` [Example 73, 1-Cyclopropyl-2-[6-[2-fluoro-3-(trifluoromethyl)phenyl]pyrazolo[4,3-b]pyridin-1-yl]ethanone]: the IC50 amounted to 43 nM.
For the compound `CN1CC(Cn2ncc3ncc(-c4ccc(F)c(C(F)F)c4)cc32)CC1=O` (racemic) [Example 120, (RS)-4-[[6-[3-(Difluoromethyl)-4-fluoro-phenyl]pyrazolo[4,3-b]pyridin-1-yl]methyl]-1-methyl-pyrrolidin-2-one], the half-inhibitory concentration (IC50) stood at 89 nM.
As to `O=C(Cn1ncc2ncc(-c3ccc(F)c(C(F)F)c3)cc21)c1ncccc1F` [Example 140, 2-(6-(3-(Difluoromethyl)-4-fluorophenyl)-1H-pyrazolo[4,3-b]pyridin-1-yl)-1-(3-fluoropyridin-2-yl)ethan-1-one], the IC50 came to 191 nM.
The figure for `CCN1C[C@@H](Cn2ncc3ncc(-c4ccc(F)c(C(F)F)c4)cc32)OC1=O` [Example 132, (S)-5-[[6-[3-(Difluoromethyl)-4-fluoro-phenyl]pyrazolo[4,3-b]pyridin-1-yl]methyl]-3-ethyl-oxazolidin-2-one] is 1430 nM; for `CN1CCC(Cn2ncc3ncc(-c4ccc(F)c(C(F)F)c4)cc32)C1=O` (racemic) [Example 116, (RS)-3-[[6-[3-(Difluoromethyl)-4-fluoro-phenyl]pyrazolo[4,3-b]pyridin-1-yl]methyl]-1-methyl-pyrrolidin-2-one] it is 303 nM.
For the compound `CC(=O)Cn1ncc2ncc(-c3ccc(F)c(C(F)F)c3)cc21` [Example 23, 1-[6-[3-(Difluoromethyl)-4-fluoro-phenyl]pyrazolo[4,3-b]pyridin-1-yl]propan-2-one], the IC50 is 14 nM.
As to `O=C1NC[C@@H](Cn2ncc3ncc(-c4ccc(F)c(C(F)F)c4)cc32)O1` [Example 21, (S)-5-[[6-[3-(Difluoromethyl)-4-fluoro-phenyl]pyrazolo[4,3-b]pyridin-1-yl]methyl]oxazolidin-2-one], the IC50 stood at 1840 nM.
On to `CCC(=O)Cn1ncc2ncc(-c3cccc(F)c3)cc21` [Example 29, 1-[6-(3-Fluorophenyl)pyrazolo[4,3-b]pyridin-1-yl]butan-2-one], for which the IC50 was 28 nM.
Take `CC(C)C(O)Cn1ncc2ncc(-c3ccccc3)cc21` (racemic) [Example 96, (RS)-3-Methyl-1-(6-phenylpyrazolo[4,3-b]pyridin-1-yl)butan-2-ol]: the IC50 was determined as 1530 nM.
Regarding `O=C(Cn1ncc2ncc(-c3ccc(F)c(F)c3F)cc21)C1CC1` [Example 79, 1-Cyclopropyl-2-[6-(2,3,4-trifluorophenyl)pyrazolo[4,3-b]pyridin-1-yl]ethanone], the half-inhibitory concentration (IC50) is 30 nM.
As to `Cc1cc(-c2cnc3cnn(C[C@H](O)C4CC4)c3c2)ccc1F` [Example 102, (R)-1-Cyclopropyl-2-[6-(4-fluoro-3-methyl-phenyl)pyrazolo[4,3-b]pyridin-1-yl]ethanol], the IC50 turned out to be 109 nM.
With `O=C(Cn1ncc2ncc(-c3ccc(F)c(C(F)F)c3)cc21)c1cccnc1` [Example 16, 2-(6-(3-(Difluoromethyl)-4-fluorophenyl)-1H-pyrazolo[4,3-b]pyridin-1-yl)-1-(pyridin-3-yl)ethan-1-one], the IC50 was 90 nM.
Then `Cc1cccc(-c2cnc3cnn(CC(=O)C4CC4)c3c2)c1` [Example 60, 1-Cyclopropyl-2-[6-(m-tolyl)pyrazolo[4,3-b]pyridin-1-yl]ethanone], with 8 nM.
As to `CCC(O)Cn1ncc2ncc(-c3ccc(F)c(OC(F)F)c3)cc21` (racemic) [Example 92, (RS)-1-[6-[3-(Difluoromethoxy)-4-fluoro-phenyl]pyrazolo[4,3-b]pyridin-1-yl]butan-2-ol], the IC50 was determined as 282 nM.
Take `COCCn1ncc2ncc(-c3ccc(F)c(C)c3)cc21` [Example 89, 6-(4-Fluoro-3-methyl-phenyl)-1-(2-methoxyethyl)pyrazolo[4,3-b]pyridine]: the IC50 came to 754 nM.
In the case of `CCC(=O)Cn1ncc2ncc(-c3ccc(Cl)c(OC(F)F)c3)cc21` [Example 41, 1-[6-[4-Chloro-3-(difluoromethoxy)phenyl]pyrazolo[4,3-b]pyridin-1-yl]butan-2-one], the IC50 came to 21 nM.
Regarding `O=C(Cn1ncc2ncc(-c3ccc(F)cc3)cc21)C1CC1` [Example 59, 1-Cyclopropyl-2-[6-(4-fluorophenyl)pyrazolo[4,3-b]pyridin-1-yl]ethanone], the IC50 came out at 13 nM.
With `OC(Cn1ncc2ncc(-c3cccc(C(F)(F)F)c3)cc21)C1CC1` (racemic) [Example 100, (RS)-1-Cyclopropyl-2-[6-[3-(trifluoromethyl)phenyl]pyrazolo[4,3-b]pyridin-1-yl]ethanol], the IC50 was found to be 290 nM.
In the case of `CN1CC(Cn2ncc3ncc(-c4ccc(F)c(OC(F)F)c4)cc32)CC1=O` (racemic) [Example 19, (RS)-4-[[6-[3-(Difluoromethoxy)-4-fluoro-phenyl]pyrazolo[4,3-b]pyridin-1-yl]methyl]-1-methyl-pyrrolidin-2-one], the IC50 came to 992 nM.
Then `O=C(Cn1ncc2ncc(-c3ccc(F)c(OC(F)F)c3)cc21)C1CC1` [Example 77, 1-Cyclopropyl-2-[6-[3-(difluoromethoxy)-4-fluoro-phenyl]pyrazolo[4,3-b]pyridin-1-yl]ethanone], with 14 nM; and `Cc1cc(-c2cnc3cnn(CC(O)C(C)C)c3c2)ccc1F` (racemic) [Example 8, (RS)-1-[6-(4-Fluoro-3-methyl-phenyl)pyrazolo[4,3-b]pyridin-1-yl]-3-methyl-butan-2-ol], with 222 nM.
`CCC(F)(F)Cn1ncc2ncc(-c3ccc(F)c(OC(F)F)c3)cc21` [Example 99, 1-(2,2-Difluorobutyl)-6-[3-(difluoromethoxy)-4-fluoro-phenyl]pyrazolo[4,3-b]pyridine]: the IC50 amounted to 213 nM.
Turning to `Cc1cc(F)ccc1-c1cnc2cnn(CC(=O)C(C)C)c2c1` [Example 52, 1-[6-(4-Fluoro-2-methyl-phenyl)pyrazolo[4,3-b]pyridin-1-yl]-3-methyl-butan-2-one], the IC50 was determined as 90 nM.
For the compound `CN1C[C@@H](Cn2ncc3ncc(-c4ccc(F)c(C(F)F)c4)cc32)OC1=O` [Example 130, (5S)-5-[[6-[3-(Difluoromethyl)-4-fluoro-phenyl]pyrazolo[4,3-b]pyridin-1-yl]methyl]-3-methyl-oxazolidin-2-one], the IC50 was determined as 478 nM.
Consider `CC[S+]([O-])Cn1ncc2ncc(-c3ccc(F)c(C(F)F)c3)cc21` (single isomer, unassigned) [Example 84, (S*)-6-(3-(Difluoromethyl)-4-fluorophenyl)-1-((ethylsulfinyl)methyl)-1H-pyrazolo[4,3-b]pyridine], for which the IC50 was found to be 29 nM.
As for `CC(C)C(=O)Cn1ncc2ncc(-c3cc(F)c(F)c(F)c3)cc21` [Example 53, 3-Methyl-1-[6-(3,4,5-trifluorophenyl)pyrazolo[4,3-b]pyridin-1-yl]butan-2-one], the half-maximal inhibitory concentration (IC50) was 41 nM.
Consider `O=C(Cn1ncc2ncc(-c3ccc(F)c(F)c3)cc21)C1CC1` [Example 65, 1-Cyclopropyl-2-[6-(3,4-difluorophenyl)pyrazolo[4,3-b]pyridin-1-yl]ethanone], for which the IC50 worked out at 13 nM.
Regarding `CCC(=O)Cn1ncc2ncc(-c3ccc(F)c(C(F)(F)F)c3)cc21` [Example 39, 1-[6-[4-Fluoro-3-(trifluoromethyl)phenyl]pyrazolo[4,3-b]pyridin-1-yl]butan-2-one], the IC50 was 75 nM.
On to `O=C(Cn1ncc2ncc(-c3cccc(Cl)c3F)cc21)C1CC1` [Example 67, 2-[6-(3-Chloro-2-fluoro-phenyl)pyrazolo[4,3-b]pyridin-1-yl]-1-cyclopropyl-ethanone], for which the IC50 was 16 nM.
On to `FC(F)(F)c1cccc(-c2cnc3cnn(CC4CCO4)c3c2)c1` (racemic) [Example 17, (RS)-1-(Oxetan-2-ylmethyl)-6-[3-(trifluoromethyl)phenyl]pyrazolo[4,3-b]pyridine], for which the IC50 was determined as 85 nM.
Consider `CN1CC[C@@H](Cn2ncc3ncc(-c4ccc(F)c(C(F)F)c4)cc32)C1=O` [Example 117, (S)-3-[[6-[3-(Difluoromethyl)-4-fluoro-phenyl]pyrazolo[4,3-b]pyridin-1-yl]methyl]-1-methyl-pyrrolidin-2-one], for which the IC50 stood at 1210 nM.
